Assay results as given in patent US8119339B2, “Heteroduplex tracking assay” (priority 2000, dated 2012).
Several values for one entry are separate records, joined by “and”; a condition that tells them apart may be missing. Identical values can stand only once.

Columns and labels:
[1] = system: HIV-1; details: Status before combination therapy, single patient, on the listed anti-HIV therapy
Protocol: (§1) Coreceptor use was examined in twenty-two women who participated in two prospective studies of HIV-1 infection. Nineteen were enrolled in the Bronx-Manhattan site of Women's Interagency HIV Study (WIHS), a National Institutes of Health (NIH) multicenter study of the natural history of HIV-1 infection in women. Three took part in a study of HIV-1 pathogenesis performed at the Wadsworth Center of the New York State Department of Health in Albany, N.Y. Both studies included individuals with a broad spectrum of HIV-1 disease. The institutional review boards at each clinical site and the New York State Department of Health approved the investigation. Each woman provided informed consent at enrollment.
(§2) To examine the effect of combination antiretroviral therapy on HIV-1 coreceptor use, women infected with CXCR4 strains were sought.
Once the study population was selected, blood was drawn and separated into plasma and cell components (Anastos et al. (2000) J. AIDS Hum. Retro. (in press); Fang et al. (1995)). HIV-1 RNA in plasma was quantitated by using NucliSens (Organon Teknika Corp., Durham, N.C.), with a lower limit of quantitation of ˜80 copies/ml. The CCR5 genotype of each patient was determined as described (Samson et al. (1996)).
(§3) At that time, eight women were receiving antiretroviral therapy, primarily zidovudine monotherapy. While under study, however, 12 initiated new combination regimens; 9 received HAART (Group I) and 3 received two or more nucleoside analogues (Group II). […] In Table 1, “Before therapy” refers to data obtained at the visit immediately preceding initiation of new two or three drug antiretroviral therapy in Groups I & II. For Group III, data from the first time point are shown (a). “Follow-up” refers to data obtained at the first time point following the initiation of the anti-HIV therapy listed for Groups I & II.

[2] = system: HIV-1 strains using CCR5 versus CXCR4; assay: QXR, proportion of patient HIV-1 using CCR5; assay type: in vivo, human; details: Status before combination therapy, single patient, on the listed anti-HIV therapy
Protocol: To quantitate HIV-1 coreceptor use, inventors constructed a variable, λ, as the proportion of strains using CCR5. This variable has since been renamed QXR. […] QXR values were assessed by utilizing qualitative assay data derived from primary isolates, biologic clones, and sequences of the V3 portion of the env gene. […] Thus, for the vast majority of virions, each virion uses either CCR5 or CXCR4. This relationship can be stated as a mixture
D=QXR(CCR5)+(1−QXR)(CXCR4); 0≦QXR≦1, where D is the distribution of viral phenotypes. By design, it is a binomial population.
QXR values were constructed by relating data derived from the same patient sample by using three different analyses: biologic cloning, V3 sequencing of patient-derived molecular clones, and qualitative assays of primary isolates. To construct QXR values, inventors first calculated the proportion of biologic and, if available, molecular clones using CCR5 at each time point, then linked the proportion to the qualitative coreceptor use score (− to 3+) of primary isolates obtained simultaneously. Data that were not available were interpolated. […]
The large number of biologic and molecular clones permitted derivation of a system to quantitate the proportion of virus in a clinical specimen that uses each coreceptor. […] By applying this method, it was determined the proportion of virus using each coreceptor for each patient over time. […]

[3] = system: CD4+ cells; assay: CD4+ cell count in women before and after antiretroviral therapy; assay type: in vivo, human; details: Status before combination therapy, single patient, on the listed anti-HIV therapy
Protocol: as §1, §2, §3

[4] = system: V3 region of the env gene; assay: Coreceptor use predicted from V3 loop sequences of plasma HIV-1 RNA molecular clones; details: number of molecular clones of virion-derived plasma HIV-1 RNA
Text: HIV-1 virions were isolated from plasma samples as described (Fang et al. (1996) J. AIDS Hum. Retro. 12:352-7). Reverse transcriptase polymerase chain reaction amplification produced a 920-bp amplicon spanning the V3 region of the env gene. Reaction conditions were controlled rigorously to minimize recombination and other artifacts (Fang et al. (1996)). Amplified products were cloned into a TOPO™ TA vector (Invitrogen, Carlsbad, Calif.), verified by restriction digestion, and sequenced. Alignment of the sequences was initially done using the PILEUP program in the GCG Suite (Genetics Computer Group, Madison, Wis.), then checked manually. Envelope sequences were used to predict coreceptor use on the basis of the overall charge of the V3 loop and the presence of basic or acidic residues at positions […] (Bhattacharyya et al. (1996); and Hung et al. (1999)).
These sequences predicted a pattern of coreceptor use that essentially paralleled the one obtained by using viral culture (Table 2B, Coreceptor use determined by cocultivation of PBMCs vs. sequence analysis of plasma HIV-1 RNA). […] At each time point, coreceptor use was assayed by co-cultivating PBMCs and determining the V3 loop sequence of virion-derived HIV-1 RNA.

[5] = system: GHOST.CCR5 and GHOST.CXCR4 indicator cells (R5-tat, X4-tat); assay: Rapid Cell Fusion Assay for coreceptor utilization (CAT-ELISA); assay type: cell-based; details: cloned patient env gene expressed on HL3T1 cells, fusion for 48 hours
Text: Viral coreceptor usage was separately evaluated through the use of a Rapid Cell Fusion Assay. This assay enables determination of coreceptor usage from cloned HIV env gene sequences obtained directly from patient samples (e.g. blood, mucosal tissue). This method allows for greater efficiency in determination of viral coreceptor usage, by circumventing the need for cultivation of primary isolates. The Rapid Cell Fusion Assay can advantageously produce a result within one week after obtaining a patient sample. In addition, the Rapid Cell Fusion Assay allows study of patient-derived virus obtained from sites other than the peripheral blood, particularly those sites from which cultured virus cannot be obtained. For example, while circulating macrophages and CD4^+ T cells are the dominant reservoir of HIV-1, viral populations distinct from those in the peripheral blood exist in many reservoirs, including the genital tract.
The HL3T1 cell line was derived by stable transfection of parental HeLa cells with a chloramphenicol acetyltransferse (CAT) reporter construct containing a CAT gene is linked to an HIV-1 LTR promoter. The HL3T1 cells produce CAT protein only upon introduction of an active HIV-1 Tat protein. HL3T1 cells were transfected with a cloned env gene derived from a patient of interest. The cloned env gene product is expressed on the surface of the HL3T1 cells.
Indicator cell lines GHOST.CCR5 and GHOST.CXCR4 (respectively hereinafter “R5-tat” and “X4-tat”) cells were transfected with pSV2tat72, a construct expressing high levels of HIV-1 Tat under the control of the SV40 early promoter.
HL3T1 cells containing a cloned patient env gene were fused to R5-tat and X4-tat cells. Cell surface envelope protein variants will selectively interact with either CCR5 or CXCR4. Fusion only occurs when an HL3T1 envelope protein interacts with an indicator cell expressing a compatible coreceptor. Therefore, HL3T1 cells will fuse with either R5-tat and X4-tat, depending on the patient's env gene specificity. To initiate fusion, transfected HL3T1 and R5-tat or X4-tat cells were mixed in 6-well plates at 37° C. and allowed to fuse for 48 hours. To quantitate fusion, the cells were lysed with 0.5% NP-40. Fusion of HL3T1 cells to R5-tat or X4-tat activated CAT gene expression. Aliquots of the cell lysates were monitored for CAT production using a commercially available kit (CAT-ELISA, Boehringer Mannheim).
Twenty-five clones from each sample were analyzed to ensure that the fusion assay reflected the heterogeneous nature of HIV-1 populations.

Row | Compound | CORECEPTOR [5] | other results
1 | Cc1cn([C@H]2C[C@H](N=[N+]=[N-])[C@@H](CO)O2)c(=O)[nH]c1=O [AZT, zidovudine] | – | HIV-1 RNA, log copies per ml [1]: 5.30 log copies per ml and 4.94 log copies per ml and 5.58 log copies per ml and 5.04 log copies per ml and 5.23 log copies per ml; QXR, proportion of HIV-1 Using R5 [2]: 0.36 (2×) and 0.90 and 0.00 (2×); CD4+ count, cells per mm3 [3]: 188 cells per mm3 and 42 cells per mm3 and 259 cells per mm3 and 307 cells per mm3 and 43 cells per mm3; Distribution of Co-Receptor Use Predicted by V3 Loop Sequences, CCR5 [4]: 9; Distribution of Co-Receptor Use Predicted by V3 Loop Sequences, CXCR4 [4]: 4
2 | Cc1cn([C@H]2C=C[C@@H](CO)O2)c(=O)[nH]c1=O [d4T, stavudine] | – | HIV-1 RNA, log copies per ml [1]: 5.28 log copies per ml; QXR, proportion of HIV-1 Using R5 [2]: 0.36; CD4+ count, cells per mm3 [3]: 9 cells per mm3
3 | ........RKSVHIGPGQAFYATGDIIGNIRKAHC [AF3P-2] | negative | –
4 | CIRPNNNTRQSVHIGPGQALYTTEIIGDIRKAHC [AF7P-9] | CCR5 | –
5 | CIRPNNNTRTSIRIGPGQAFYATGNIIGDIRQAYC [AF2P12-12] | CCR5 | –
6 | CIRPNNNTRTSIRIGPGQAFYATGNIIGGIRQAYC [AF2P12-2] | CCR5 | –
7 | CIRPNNNTRTSIRIGPGQAFYATGNIVGDIRQAYC [AF2P12-11] | CCR5 | –
8 | CIRPNNNTRTSIRIGPRQAFYATGNIIGDIRQAYC [AF2P12-10] | CXCR4 | –
9 | CTRPINNRRKSIHIGPGQAFYGT.DDIIGDIRQAHC [AF6P-10] | CCR5 | –
10 | CTRPINNRRKSIHMGPGQAFYGT.DDIIGDIRKARC [AF6P-1] | CCR5 | –
11 | CTRPNDNIRKRVHIGPGQAFYATGDVIGDIRRAHC [AF10P97-4] | CXCR4 | –
12 | CTRPNDNIRKSVHIGPGQAFYATGDIIGDIRRAHC [AF10P97-2] | CCR5 | –
13 | CTRPNNNTITSIRIGPGQAFYATGSIIGNIRQAHC [AF9P2-3] | CCR5 | –
14 | CTRPNNNTITSIRIGPGQAFYATGSIIGNTRQAHC [AF9P2-4] | CCR5 | –
15 | CTRPNNNTKKSVHIGPGQAFYATGDIIGDIRQAYC [AF5P-6] | CCR5 | –
16 | CTRPNNNTRKSVHIGLGQAFYATGDIIGNIRKAHC [AF3P-9] | CCR5 | –
17 | CTRPNNNTRKSVHIGPGQAFYATGDIIGDIRQAYC [AF5P-5] | CCR5 | –
18 | CTRPNNNTRKSVHIGPGQAFYATGDIIGNIRKAHC [AF3P-4] | CCR5 | –
19 | CTRPNNNTRKSVHIGPGQAFYATGDIIGNIRQAHC [AF3P-6] | CCR5 | –
20 | CTRPNNNTRKSVHIGPGQAFYATGDIIGNMRKAHC [AF3P-12] | CCR5 | –
21 | CTRPNNNTRKSVHIGPGQAFYATGDILGNIRQAHC [AF3P-11] | CCR5 | –
22 | CTRPSNNRRKSIHKGDQDKHSMEHDDVIGDIRKARC [AF6P-7] | negative | –
23 | CTRPSNNRRKSIHMGPGQAFYGT.DDIIGDIRKARC [AF6P-12] | CCR5 | –
24 | CTRPSNNRRKSIHMGPGQAFYGT.DDIIGGIRKARC [AF6P-11] | CCR5 | –
